Patent US5358947A, “Angiotensin II receptor blocking 2,3-substituted pyrazolo[1,5-a]-1,3,5-triazin-4(3H)-ones” (American Cyanamid Company, priority 1993, dated 1994)
“And” between values parts separate entries of the source, which are not always exact repeats. Identical values can stand only once.

Test system: ANGIOTENSIN II (AII) VASOPRESSOR RESPONSE
Assay: AII Challenge: angiotensin II (AII) vasopressor response in conscious rats
Format: in vivo
Set-up: Response After AII / Change / Average Change: unit not given here
Conditions: 10 mg/kg i.v.; for Change / Response After AII / Control Before AII: individual rat; for Control Before AII: in mmHg (unit assumed); for % Inhibition / Average Change: n = 2
Procedure, shortened: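 Conscious male Okamoto-Aoki SHR (16-20 weeks, ~330 g), aorta/vena cava cannulated, challenged with AII 0.05 and 0.1 ug/kg i.v. before and at 30-300 min after compound dosed i.v., i.p. or orally. Systolic pressure rise expressed relative to each rat's predose response (100%).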

[1] = AII 0.05 mcg/kg, 30 min post dose
[2] = AII 0.05 mcg/kg, 30 min post dose, listed as Ex. 11
[3] = AII 0.05 mcg/kg, 60 min post dose, listed as Ex. 11
[4] = AII 0.05 mcg/kg, 60 min post dose
[5] = AII 0.05 mcg/kg, 90 min post dose
[6] = AII 0.05 mcg/kg, 90 min post dose, listed as Ex. 11
[7] = AII 0.05 mcg/kg, 120 min post dose
[8] = AII 0.05 mcg/kg, 120 min post dose, listed as Ex. 11
[9] = AII 0.05 mcg/kg, 180 min post dose
[10] = AII 0.05 mcg/kg, 180 min post dose, listed as Ex. 11
[11] = AII 0.05 mcg/kg, 240 min post dose
[12] = AII 0.05 mcg/kg, 240 min post dose, listed as Ex. 11
[13] = AII 0.05 mcg/kg, 300 min post dose
[14] = AII 0.05 mcg/kg, 300 min post dose, listed as Ex. 11
[15] = AII 0.1 mcg/kg, 30 min post dose
[16] = AII 0.1 mcg/kg, 30 min post dose, listed as Ex. 11
[17] = AII 0.1 mcg/kg, 60 min post dose
[18] = AII 0.1 mcg/kg, 90 min post dose
[19] = AII 0.1 mcg/kg, 90 min post dose, listed as Ex. 11
[20] = AII 0.1 mcg/kg, 120 min post dose
[21] = AII 0.1 mcg/kg, 120 min post dose, listed as Ex. 11
[22] = AII 0.1 mcg/kg, 180 min post dose
[23] = AII 0.1 mcg/kg, 240 min post dose
[24] = AII 0.1 mcg/kg, 240 min post dose, listed as Ex. 11
[25] = AII 0.1 mcg/kg, 300 min post dose
[26] = AII 0.1 mcg/kg, 300 min post dose, listed as Ex. 11

For `CCCCc1nc2cc(-c3ccco3)nn2c(=O)n1Cc1ccc(-c2ccccc2-c2nnn[nH]2)cc1` [Example 11, 2-Butyl-7-(2-furanyl)-3-[[2'-(1H-tetrazol-5-yl)[1,1'-biphenyl]-4-yl]methyl]pyrazolo[1,5-a]-1,3,5-triazin-4(3H)-one], which Change [1] is on record?
The Change was 0.

What about the “Response After AII” value [1] of the same compound?
The value was 200.

What about the “Response After AII” value [2] of the same compound?
The value was 205.

And the “Control Before AII” value [2]?
The value was 200 and 205.

And the “% Inhibition” value [1]?
Its value is 100%.

What about the “Average Change” value [1] of the same compound?
The value was 0.

What about the Change [3] of the same compound?
The Change was 13 and 5.

What about the “Response After AII” value [3] of the same compound?
The value was 198 and 200.

And the “Control Before AII” value [3]?
Its value is 185 and 195.

What about the “% Inhibition” value [4] of the same compound?
Its value is 76%.

What about the “Average Change” value [4] of the same compound?
Its value is 9.

And the “Response After AII” value [5]?
The value was 200.

And the Change [6]?
Its Change is 10 and 15.

And the “Control Before AII” value [6]?
The value was 190 and 185.

What about the “% Inhibition” value [5] of the same compound?
Its value is 67%.

What about the “Average Change” value [5] of the same compound?
Its value is 12.5.

What about the “Response After AII” value [7] of the same compound?
The value was 195.

What about the “Control Before AII” value [7] of the same compound?
Its value is 185.

And the Change [8]?
Its Change is 20 and 10.

What about the “Response After AII” value [8] of the same compound?
The value was 205.

What about the “% Inhibition” value [7] of the same compound?
The value was 60%.

What about the “Average Change” value [7] of the same compound?
The value was 15.

What about the “Response After AII” value [9] of the same compound?
The value was 195.

And the “Control Before AII” value [9]?
The value was 185.

What about the Change [10] of the same compound?
The Change was 10 and 20.

What about the “Response After AII” value [10] of the same compound?
Its value is 205.

And the “% Inhibition” value [9]?
The value was 60%.

What about the “Average Change” value [9] of the same compound?
Its value is 15.

And the “Control Before AII” value [11]?
The value was 185.

And the Change [12]?
Its Change is 25 and 15.

What about the “Response After AII” value [12] of the same compound?
The value was 210 and 200.

What about the “% Inhibition” value [11] of the same compound?
Its value is 47%.

What about the “Average Change” value [11] of the same compound?
The value was 20.

What about the “Control Before AII” value [13] of the same compound?
The value was 185.

What about the Change [14] of the same compound?
The Change was 30 and 20.

What about the “Response After AII” value [14] of the same compound?
The value was 215 and 205.

And the “% Inhibition” value [13]?
The value was 33%.

And the “Average Change” value [13]?
Its value is 25.

What about the “Response After AII” value [15] of the same compound?
Its value is 192.

What about the Change [16] of the same compound?
Its Change is 2 and 0.

What about the “Response After AII” value [16] of the same compound?
Its value is 205.

What about the “Control Before AII” value [16] of the same compound?
The value was 190 and 205.

What about the “% Inhibition” value [15] of the same compound?
The value was 98%.

What about the “Average Change” value [15] of the same compound?
Its value is 1.

And the Change [17]?
Its Change is 10.

And the “Response After AII” value [17]?
Its value is 205.

And the “Control Before AII” value [17]?
The value was 195.

And the “% Inhibition” value [17]?
Its value is 79%.

What about the “Average Change” value [17] of the same compound?
The value was 10.

What about the “Response After AII” value [18] of the same compound?
Its value is 210.

And the “Control Before AII” value [18]?
Its value is 190.

And the Change [19]?
The Change was 20 and 15.

What about the “Response After AII” value [19] of the same compound?
The value was 205.

What about the “% Inhibition” value [18] of the same compound?
The value was 63%.

And the “Average Change” value [18]?
Its value is 17.5.

And the “Response After AII” value [20]?
The value was 200.

What about the “Control Before AII” value [20] of the same compound?
Its value is 185.

What about the Change [21] of the same compound?
The Change was 20 and 15.

And the “Response After AII” value [21]?
Its value is 205.

And the “% Inhibition” value [20]?
The value was 63%.

What about the “Average Change” value [20] of the same compound?
The value was 17.5.

And the Change [22]?
Its Change is 25.

What about the “Response After AII” value [22] of the same compound?
Its value is 210.

What about the “Control Before AII” value [22] of the same compound?
Its value is 185.

What about the “% Inhibition” value [22] of the same compound?
Its value is 47%.

And the “Average Change” value [22]?
Its value is 25.

What about the “Response After AII” value [23] of the same compound?
Its value is 210.

What about the “Control Before AII” value [23] of the same compound?
The value was 185.

And the Change [24]?
The Change was 30 and 25.

And the “Response After AII” value [24]?
The value was 205.

What about the “Control Before AII” value [24] of the same compound?
Its value is 175.

What about the “% Inhibition” value [23] of the same compound?
Its value is 42%.

What about the “Average Change” value [23] of the same compound?
Its value is 27.5.

And the “Response After AII” value [25]?
The value was 210.

What about the “Control Before AII” value [25] of the same compound?
Its value is 185.

What about the Change [26] of the same compound?
The Change was 25 and 30.

And the “Response After AII” value [26]?
Its value is 215.

And the “% Inhibition” value [25]?
The value was 42%.

And the “Average Change” value [25]?
Its value is 27.5.
